# Source: patent US5605921A, “Triazole derivatives and salts thereof, and antifungal agent containing the same” (Toyama Chemical Co., Ltd., priority 1991, dated 1997)
# Experiments:
# Candida albicans ON28 [1] = assay: Minimum inhibitory concentration (MIC) against Candida albicans ON28; type: cell-based; conditions: ON28, 72 h, TC broth medium, 10^4 spores/ml, 37° C., 3 days
# Protocol: (§1) MIC was determined in accordance with the method of M. S. Marriott [25th Interscience Conference on Antimicrobial Agents and Chemotherapy, p. 243 (1985)].
# (§2) Candida albicans ON28 was cultured in a sabouraud dextrose agar medium containing 10 g of neopeptone, 20 g of glucose and 15 g of agar per liter, at 30° C. for 1-2 days. The yeast cells were suspended in sterile distilled water. Separately, Aspergillus fumigatus IFO8868 was cultured in a potato dextrose agar medium (manufactured by Nissui Pharmaceutical Co., Ltd.) at 30° C. until the conidia were formed abundantly. The formed conidia were suspended in a sterile physiological saline containing 0.1% of Tween 80. Each of the Candida albicans suspension and the Aspergillus fumigatus suspension was inoculated into a TC broth medium (containing 1.17 g of an yeast carbon base, 0.25 g of ammonium sulfate, 2.0 ml of a 50-fold concentrate of L-glutamic acid-containing MEM amino acid, 20 ml of a 0.5M phosphate buffer of pH 7.5 and 1.33 ml of 7.5% sodium hydrogencarbonate per 100 ml) containing a test compound, so that the final fungal amount became 10^4 spores/ml. Then, culture was conducted at 37° C. for 3 days. Thereafter, the growth of fungi was examined. The minimum concentration of test compound at which the growth of fungi had been inhibited, was taken as MIC (μg/ml).
# [2] = test system: Aspergillus fumigatus IFO8868; assay: Therapeutic effect, oral, mice infected with Aspergillus fumigatus IFO8868 (4), Table 2d; type: in vivo; conditions: average survival days of Ketoconazole taken as 100; Aspergillus fumigatus 5.8×10^6 cells/mouse i.v.; 0.8 mg/mouse oral, 2 hours after infection and once daily for six consecutive days; 10 days observation; 10 mice
# Protocol: (4) The therapeutic effects of the present compounds, when they were administered orally, were examined using mice infected with Aspergillus fumigatus IFO8868.
# (§3) Aspergillus fumigatus IFO8868 was injected in a proportion of 5.8×10^6 cells/mouse to a group of 10 ICR strain male mice (weight: 19-21 g) intravenously at the tails, whereby the mice were infected with the fungi. […] The relative therapeutic index of the test compound was determined from the average survival days.
# The results are shown in Table 2d, in which the relative therapeutic index of each test compound is a value calculated by taking the average survival days of Ketoconazole as 100.
# Candida albicans ON28 [3] = assay: Therapeutic effect, oral, mice infected with Candida albicans ON28 (3), Table 2c; type: in vivo, ICR strain male mice infected with Candida albicans ON28; conditions: average survival days of Ketoconazole taken as 100; Candida albicans 5.7×10^6 cells/mouse i.v.; 0.1 mg/mouse oral, 2 hours after infection; 10 days observation; 10 mice
# Protocol: (3) The therapeutic effects of the present compounds, when they were administered orally, were examined using mice infected with Candida albicans ON28.
# as §3, with “Candida albicans ON28” for “Aspergillus fumigatus IFO8868”, “5.7×10^6” for “5.8×10^6”
# The results are shown in Table 2c, in which the relative therapeutic index of each test compound is a value calculated by taking the average survival days Ketoconazole as 100.
# [4] = test system: Aspergillus fumigatus IFO8868; assay: Minimum inhibitory concentration (MIC) against Aspergillus fumigatus IFO8868; type: cell-based; conditions: IFO8868, 72 h, TC broth medium, 10^4 spores/ml, 37° C., 3 days
# Protocol: as §1, §2
# Candida albicans ON28 [5] = assay: Therapeutic effect, oral, mice infected with Candida albicans ON28 (1), Table 2a; type: in vivo, ICR strain male mice infected with Candida albicans ON28; conditions: average survival days of Ketoconazole taken as 100; Candida albicans 3.5×10^6 cells/mouse i.v.; 0.1 mg/mouse oral, 2 hours after infection; 10 days observation; 5 mice
# Protocol: (1) The therapeutic effects of the present compounds, when they were administered orally, were examined using mice infected with Candida albicans ON28.
# as §3, with “Candida albicans ON28” for “Aspergillus fumigatus IFO8868”, “3.5×10^6” for “5.8×10^6”, “5” for “10”
# The results are shown in Table 2a, in which the relative therapeutic index of each test compound is a value calculated by taking the average survival days Ketoconazole as 100.
# [6] = test system: Aspergillus fumigatus IFO8868; assay: Therapeutic effect, oral, mice infected with Aspergillus fumigatus IFO8868 (2), Table 2b; type: in vivo; conditions: average survival days of Ketoconazole taken as 100; Aspergillus fumigatus 3.6×10^6 cells/mouse i.v.; 0.8 mg/mouse oral, 2 hours after infection; 10 days observation; 5 mice
# Protocol: (2) The therapeutic effects of the present compounds, when they were administered orally, were examined using mice infected with Aspergillus fumigatus IFO8868.
# as §3, with “3.6×10^6” for “5.8×10^6”, “5” for “10”
# The results are shown in Table 2b, in which the relative therapeutic index of each test compound is a value calculated by taking the average survival days of Ketoconazole as 100.
# [7] = Acute toxicity in mice, intravenous; type: in vivo; conditions: intravenous at the tail, ICR strain male mice, group of 5; 50% solution in polyethylene glycol 300
# Protocol: Each of the compounds of Examples 10, 12, 19, 79, 142 and 146 was administered to a group of 5 ICR strain male mice (weight: 29-31 g) intravenously at the tails, and the acute toxicity of each compound was examined.
# Each compound was administered in the form of a 50% solution in polyethylene glycol 300.
Structure (SMILES),MIC (Candida albicans ON28 [1]),Relative therapeutic index [2],Relative therapeutic index (Candida albicans ON28 [3]),MIC [4],Relative therapeutic index (Candida albicans ON28 [5]),Relative therapeutic index [6],dose up to which no dead case occurred (acute toxicity) [7]
"O=C(NC1CC1)C(F)(F)C(O)(Cn1cncn1)c1ccc(F)cc1F (single isomer, unassigned) [Example 145]",0.1 µg/mL,353,409,12.5 µg/mL,,,
O=C(NC1CC1)C(F)(F)C(O)(Cn1cncn1)c1ccc(F)cc1Cl (centres unmarked) [Example 30],0.2 µg/mL,358,414,12.5 µg/mL,355,207,
"NC(=O)C(F)(F)C(O)(Cn1cncn1)c1ccc(F)cc1Cl (single isomer, unassigned) [Example 146]",0.39 µg/mL,500,418,50 µg/mL,,,≥ 200 mg/kg
O=C(NC1CC1)C(F)(F)C(O)(Cn1cncn1)c1ccc(F)cc1F (centres unmarked) [Example 19],0.1 µg/mL,253,405,50 µg/mL,625,164,≥ 100 mg/kg
"CNC(=O)C(F)(F)C(O)(Cn1cncn1)c1ccc(F)cc1Cl (single isomer, unassigned) [Example 147]",0.1 µg/mL,526,414,6.25 µg/mL,,,
NC(=O)C(F)(F)C(O)(Cn1cncn1)c1ccc(F)cc1Cl (centres unmarked) [Example 79],0.78 µg/mL,400,405,50 µg/mL,,,≥ 200 mg/kg
CNC(=O)C(F)(F)C(O)(Cn1cncn1)c1ccc(F)cc1F (centres unmarked) [Example 11],0.2 µg/mL,174,423,100 µg/mL,,,
"CNC(=O)C(F)(F)C(O)(Cn1cncn1)c1ccc(F)cc1F (single isomer, unassigned) [Example 143]",0.2 µg/mL,242,450,25 µg/mL,,,
"NC(=O)C(F)(F)C(O)(Cn1cncn1)c1ccc(F)cc1F (centres unmarked) [Example 10, 3-(2,4-difluorophenyl)-2,2-difluoro-3-hydroxy-4-(1H-1,2,4-triazol-1-yl)butanamide]",,200,414,,,,≥ 200 mg/kg
CCNC(=O)C(F)(F)C(O)(Cn1cncn1)c1ccccc1F (centres unmarked) [Example 73],0.39 µg/mL,,,25 µg/mL,,,
CNC(=O)C(F)(F)C(O)(Cn1cncn1)c1ccc(F)cc1Cl (centres unmarked) [Example 80],0.39 µg/mL,416,455,12.5 µg/mL,,,
CCNC(=O)C(F)(F)C(O)(Cn1cncn1)c1ccc(F)cc1F (centres unmarked) [Example 12],0.2 µg/mL,237,445,25 µg/mL,440,150,≥ 100 mg/kg
CNC(=O)C(F)(F)C(O)(Cn1cncn1)c1ccccc1Cl (centres unmarked) [Example 74],0.78 µg/mL,,,12.5 µg/mL,,,
CC1(NC(=O)C(F)(F)C(O)(Cn2cncn2)c2ccc(F)cc2F)CC1 (centres unmarked) [Example 4],0.1 µg/mL,,,50 µg/mL,,,
"NC(=O)C(F)(F)C(O)(Cn1cncn1)c1ccc(F)cc1F (single isomer, unassigned) [Example 142]",0.78 µg/mL,216,405,100 µg/mL,,,≥ 200 mg/kg
CC(C)(C)NC(=O)C(F)(F)C(O)(Cn1cncn1)c1ccc(F)cc1F (centres unmarked) [Example 51],0.1 µg/mL,,,12.5 µg/mL,,,
CC(C)NC(=O)C(F)(F)C(O)(Cn1cncn1)c1ccc(F)cc1F (centres unmarked) [Example 33],0.2 µg/mL,,,50 µg/mL,,,
COc1ccc(NC(=O)C(F)(F)C(O)(Cn2cncn2)c2ccc(F)cc2F)cc1 (centres unmarked) [Example 139],0.05 µg/mL,,,12.5 µg/mL,,,
O=C(NC1(c2ccc(Cl)cc2)CC1)C(F)(F)C(O)(Cn1cncn1)c1ccc(F)cc1F (centres unmarked) [Example 5],≤ 0.05 µg/mL,,,12.5 µg/mL,,,
CCNC(=O)C(F)(F)C(O)(Cn1cncn1)c1cc(F)c(F)cc1F (centres unmarked) [Example 88],0.2 µg/mL,,,50 µg/mL,,,
